Laboratory results taken from article PMC10107836 (Chembiochem, 2022).
Where “and” joins values, the source holds several entries; their conditions need not be identical. Equal entries are not always repeated.

Key:
AcmJRL [1] = biological target: T1, AcmJRL (Ananas comosus, UniProt Q53J09); test: Reporter ligand displacement assay; format: binding; conditions: carbohydrate at 10 mM
T1 sequence (Q53J09 1-145): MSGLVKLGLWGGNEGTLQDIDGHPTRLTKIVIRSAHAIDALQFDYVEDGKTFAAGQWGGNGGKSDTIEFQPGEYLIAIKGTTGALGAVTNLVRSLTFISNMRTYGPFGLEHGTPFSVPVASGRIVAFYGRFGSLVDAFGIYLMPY

[2] = tested on: AcmJRL−S‐protein interaction; format: binding, SARS‐CoV‐2
AcmJRL [3] = biological target: T1, AcmJRL; test: Semiotik glycan array with Cy3-labelled AcmJRL; format: binding
[4] = biological target: SARS-CoV-2 spike RBD (SARS-CoV-2) (UniProt P0DTC2); test: SPR
[5] = biological target: human angiotensin-converting-enzyme-2 (ACE2) receptor, recombinant (human) (UniProt Q9BYF1); test: SPR
AcmJRL [6] = biological target: T1, AcmJRL; format: binding; conditions: for RFU: FITC‐labelled AcmJRL at 50 μg mL^−1, average RFU±s.d. from 6 replicates
AcmJRL [7] = biological target: T2, AcmJRL (Ananas comosus, UniProt Q53J09); format: biochemical; conditions: SD, n = 3
T2 sequence (Q53J09 2-145): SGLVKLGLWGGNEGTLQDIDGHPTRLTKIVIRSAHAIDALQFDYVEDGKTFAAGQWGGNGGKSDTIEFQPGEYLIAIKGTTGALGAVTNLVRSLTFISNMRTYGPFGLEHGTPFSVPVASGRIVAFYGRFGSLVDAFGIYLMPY

Chain of human angiotensin-converting-enzyme-2 (ACE2) receptor, recombinant (human) (Q9BYF1 18-740): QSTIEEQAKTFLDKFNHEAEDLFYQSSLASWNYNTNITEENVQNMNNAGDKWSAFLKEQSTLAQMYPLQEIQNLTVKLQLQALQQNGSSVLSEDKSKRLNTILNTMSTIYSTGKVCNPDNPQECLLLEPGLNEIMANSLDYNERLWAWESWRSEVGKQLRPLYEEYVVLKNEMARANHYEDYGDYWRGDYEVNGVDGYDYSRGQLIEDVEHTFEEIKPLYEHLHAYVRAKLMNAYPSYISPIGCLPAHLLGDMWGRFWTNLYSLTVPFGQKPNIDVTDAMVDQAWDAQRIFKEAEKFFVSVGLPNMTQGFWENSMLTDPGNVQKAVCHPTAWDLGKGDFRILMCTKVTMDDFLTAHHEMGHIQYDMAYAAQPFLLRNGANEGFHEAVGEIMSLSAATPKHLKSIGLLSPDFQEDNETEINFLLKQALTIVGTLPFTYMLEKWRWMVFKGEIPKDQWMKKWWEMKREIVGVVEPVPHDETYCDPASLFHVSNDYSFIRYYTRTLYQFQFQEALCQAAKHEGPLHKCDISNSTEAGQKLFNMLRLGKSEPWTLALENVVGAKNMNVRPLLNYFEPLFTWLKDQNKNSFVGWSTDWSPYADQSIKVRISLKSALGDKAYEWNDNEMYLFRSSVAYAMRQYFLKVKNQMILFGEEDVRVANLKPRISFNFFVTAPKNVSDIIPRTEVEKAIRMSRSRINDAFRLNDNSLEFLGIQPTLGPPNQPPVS

`CC(=O)N[C@@H]1[C@@H](O)[C@H](O)[C@@H](CO)O[C@H]1O` [D-GlcNAc, N‐acetylglucosamine] was tested, and the “inhibition of AcmJRL, single concentration (in words)” value (shortened to “inhibition of AcmJRL”) (AcmJRL [1]) was “confirmed as ligands”.

In the case of `OC[C@H]1O[C@H](OC[C@H]2O[C@H](O[C@]3(CO)O[C@H](CO)[C@@H](O)[C@@H]3O)[C@H](O)[C@@H](O)[C@@H]2O)[C@H](O)[C@@H](O)[C@H]1O` [D‐raffinose, Gal‐α‐1,6Glc‐α‐1,2Fruc], the “effect on AcmJRL binding to S-protein (in words)” value [2] is reported as “did not interfere”.

With `O=C[C@H](O)[C@@H](O)[C@H](O[C@@H]1O[C@H](CO)[C@@H](O)[C@H](O)[C@H]1O)[C@H](O)CO` [cellobiose, Glc‐β‐1,4‐Glc] the “inhibition of AcmJRL” value (AcmJRL [1]) was “had no effect”.

For “-8(D-Ala1-7)Leg5Acα2-4GlcAβ1-3GlcNAcβ1- [E. coli O161]”, the “binding on Semiotik glycan array (in words)” value (AcmJRL [3]) was “recognised”.

With Manα1-6(Manα1-3)Manβ-sp4 [(Ma)3b] the “binding on Semiotik glycan array (in words)” value (AcmJRL [3]) was “showed no binding”.

For “-3GalNAcβ1-4(L6dTalα1-3)Manα1-3L6dTalα1- [A. hydrophila O34deAc]”, the “binding on Semiotik glycan array (in words)” value (AcmJRL [3]) was “recognised”.

In the case of “pineapple-derived jacalin-related lectin AcmJRL (natural protein)”, the Kd [4] is reported as 12.9 µM and 35 µM, the koff [4] is reported as 0.0194 s⁻¹ and the kon [4] is reported as 1490 M⁻¹ s⁻¹. For the same compound, the Kd [5] was 22.1 µM, the koff [5] was 0.0122 s⁻¹ and the kon [5] was 590 M⁻¹ s⁻¹.

For `OC[C@H]1O[C@H](O[C@H]2[C@H](O)[C@@H](O)[C@H](O)O[C@@H]2CO)[C@H](O)[C@@H](O)[C@@H]1O` [maltobiose, Glc‐α‐1,4‐Glc], the “inhibition of AcmJRL” value (AcmJRL [1]) was “showed highest inhibition”.

`N[C@H]1C(O)O[C@H](CO)[C@@H](O)[C@@H]1O` (some centres unmarked) [glucosamine] was tested, and the “inhibition of AcmJRL” value (AcmJRL [1]) was “confirmed as ligands”.

In the case of `OC[C@H]1O[C@@H](O[C@H]2[C@H](O)[C@@H](O)[C@H](O)O[C@@H]2CO)[C@H](O)[C@@H](O)[C@H]1O` [D‐lactose, Gal‐β‐1,4Glc], the “effect on AcmJRL binding to S-protein (in words)” value [2] is reported as “did not interfere”.

With -6Manα1- [Mannan] the “binding on Semiotik glycan array (in words)” value (AcmJRL [3]) was “confirmed as a ligand”.

Compound `OC[C@H]1O[C@H](O[C@H]2[C@H](O)[C@@H](O)[C@H](O)O[C@@H]2CO)[C@H](O)[C@@H](O)[C@@H]1O` [CFG‐GLYCAN ID 195, Glc‐α‐1,4‐Glc‐β] has an RFU (AcmJRL [6]) of 33±5 RFU.

With `CO[C@H]1O[C@H](CO)[C@@H](O)[C@H](O)[C@@H]1O` [Me-α-D-Man, methyl α-D-mannopyranoside] the IC50 (AcmJRL [7]) was 10700 µM.

In the case of “Man‐α‐1,6(Man‐α‐1,3)Man‐α‐1,6(Man‐α‐1,3)Man‐β [CFG‐GLYCAN ID 310]”, the RFU (AcmJRL [6]) is reported as 410±141 RFU and the “binding response on CFG glycan array (in words)” value (AcmJRL [6]; FITC‐labelled AcmJRL, 5 and 50 μg mL^−1) is reported as “highest binding responses”.
